According to US10434083B2, “Transmammary delivery of cyclooxygenase-2 inhibitors for analgesia in neonates” (Iowa State University Research Foundation, Inc., priority 2018, dated 2019):
Read-outs that look alike come from different tables or passages of the source.

Assay: Firocoxib pharmacokinetics in sows following IM administration (Example 2)
Type: in vivo, swine
Conditions: for AUC(0-t) / AUC(0-inf) / CL/F / Cmax / MRT inf / Tmax / MRT last / Vd/F / half-life: female, Yorkshire×Landrace, plasma; for AUC(0-t) / AUC(0-inf): im; for MRT last: read-out: MRT0-last; for Vd/F: read-out: VZ/F; for half-life: read-out: plasma elimination half-life (T1/2λz), range over dose groups
Experimental: Protocols involved intramuscular injection of Firocoxib to lactating sows at either 0.5, 1.0, 1.5 or 2 mg/kg, and analysis in sows and select piglets at 21 days post treatment. Pregnant Yorkshire×Landrace sows (mean±SEM bodyweight, 250.3±7.61 kg) that were approximately 1 week before farrowing were sourced from a commercial swine farm. Each sow was examined by a veterinarian to confirm that she was healthy and pregnant. A unique numerical ear tag (Allflex Global Ear Tags, Allflex USA, Inc., DFW Airport, TX) was placed in the right ear of each sow for identification. The sows were housed in a commercial swine operation at MVS (West Point, Nebr.) in accordance with the recommendations in the Guide for the Care and Use of Agricultural Animals in Agricultural Use and Research and Teaching (Guide for the Care and Use of Agricultural Animals in Agricultural Research and Teaching, 2010). Sows were placed in Quad- or Euro-style farrowing stalls (Thorp Equipment, Thorp, Wis.), depending on availability. Regardless of stall type, each sow was housed in a farrowing crate measuring 0.6 m×2.1 m. Quad and Euro crates had piglet creep areas of 7.0 m^2 and 6.4 m^2, respectively. After farrowing, a heat lamp was provided on one side of the creep area for the piglets in each crate. All sows were fed a diet that met or exceeded National Research Council (NRC, 2012) nutrient requirements and water was provided ad libitum. Each litter provided at least six male and three female piglets for sampling with the exception of one sow that had 5 males and 4 females in the litter, and one sow that had 3 males and 6 females in the litter. Piglets were clinically examined and weighed on Study Day 0 prior to dosing. Cross fostering of the litters was permitted. Bodyweights were used to randomly assign sows to 1 of 4 treatment groups (n=4 sows/group) as detailed in Table 3.
A sample size of 4 sows was selected to describe the pharmacokinetics of firocoxib. For the comparison of plasma cortisol concentrations and average daily gain in bodyweight (ADG), a sample size of 36 piglets/treatment group was calculated to provide Statistical Power of 0.8 assuming an alpha of 0.05, sigma of 0.54 and delta of 0.20. At the time of study commencement (T0), sows received a single dose of firocoxib (Equioxx Injection, Merial, Duluth, Ga.) (Lot number 4VP07, Expiration Date November 2017) administered at either 0.5 mg/kg, 1.0 mg/kg, 1.5 mg/kg, or 2.0 mg/kg by IM injection into the right lateral neck using an 18-gauge, 1.5-inch needle attached to a 20-mL syringe (Table 3). In cases where the calculated dose volume exceeded 20-mL, the remaining volume was administered via IM injection in the left lateral neck muscle.
Blood samples for firocoxib determination were collected from the sows and three piglets/litter (two male and one female piglet at each time point) at 0, 2, 4, 6, 8, 12, 24, 48, 72, 96, and 120 h post-drug injection to the sow. The blood sample from each sow (8 mL/sample) was collected via the left or right jugular vein using a 25.4-mm, 16-gauge hypodermic needle (Air-Tite Products, Virginia Beach, Va.) attached to a 12-mL Luer-Lok syringe (TycoHealth Care, Mansfield, Mass.). During blood collection, a pig snare was used for manual restraint of each sow in her crate. The blood samples (2 mL/sample) from the piglets were collected from the left or right cranial vena cava using a 3.8-cm, 20-gauge hypodermic needle (TycoHealth Care, Mansfield, Mass.) attached to a 3-mL syringe (TycoHealth Care, Mansfield, Mass.). Physical restraint of the piglet was achieved by placing the animal in a supine position during sample collection. Blood samples were transferred to 6-mL evacuated tubes that contained lithium heparin (Vacuette plasma tubes, Greiner Bio-One, Monroe, N.C.) that were stored on ice for up to 2 h before processing. The blood samples were centrifuged for 10 min at 1,500×g. The plasma was then removed, placed in cryovials, and frozen at −80° C. until analysis. […]

## CC1(C)OC(=O)C(OCC2CC2)=C1c1ccc(S(C)(=O)=O)cc1 [firocoxib]
pig, 0.5 mg/kg, sow dose 0.5 mg/kg (Table 7), read-out: Sow AUClast
  AUC(0-t): 1530 ng·h/mL
pig, 0.5 mg/kg, sow dose 0.5 mg/kg (Table 7), read-out: Sow AUC∞
  AUC(0-inf): 1590 ng·h/mL
pig, 0.5 mg/kg, sows, 0.5 mg/kg IM, mean, read-out: AUC0-24h
  AUC(0-t): 1030 ng·h/mL
pig, 0.5 mg/kg, sows, 0.5 mg/kg IM, mean, read-out: AUC0-last
  AUC(0-t): 1530 ng·h/mL
pig, 0.5 mg/kg, sows, 0.5 mg/kg IM, mean, read-out: AUCINF
  AUC(0-inf): 1590 ng·h/mL
pig, 1 mg/kg, sow dose 1.0 mg/kg (Table 7), read-out: Sow AUClast
  AUC(0-t): 5330 ng·h/mL
pig, 1 mg/kg, sow dose 1.0 mg/kg (Table 7), read-out: Sow AUC∞
  AUC(0-inf): 5620 ng·h/mL
pig, 1 mg/kg, sows, 1.0 mg/kg IM, mean, read-out: AUC0-24h
  AUC(0-t): 2670 ng·h/mL
pig, 1 mg/kg, sows, 1.0 mg/kg IM, mean, read-out: AUC0-last
  AUC(0-t): 5330 ng·h/mL
pig, 1 mg/kg, sows, 1.0 mg/kg IM, mean, read-out: AUCINF
  AUC(0-inf): 5620 ng·h/mL
pig, 1.5 mg/kg, sow dose 1.5 mg/kg (Table 7), read-out: Sow AUClast
  AUC(0-t): 8320 ng·h/mL
pig, 1.5 mg/kg, sow dose 1.5 mg/kg (Table 7), read-out: Sow AUC∞
  AUC(0-inf): 8660 ng·h/mL
pig, 1.5 mg/kg, sows, 1.5 mg/kg IM, mean, read-out: AUC0-24h
  AUC(0-t): 4840 ng·h/mL
pig, 1.5 mg/kg, sows, 1.5 mg/kg IM, mean, read-out: AUC0-last
  AUC(0-t): 8320 ng·h/mL
pig, 1.5 mg/kg, sows, 1.5 mg/kg IM, mean, read-out: AUCINF
  AUC(0-inf): 8660 ng·h/mL
pig, 2 mg/kg, sow dose 2.0 mg/kg (Table 7), read-out: Sow AUClast
  AUC(0-t): 12700 ng·h/mL
pig, 2 mg/kg, sow dose 2.0 mg/kg (Table 7), read-out: Sow AUC∞
  AUC(0-inf): 13700 ng·h/mL
pig, 2 mg/kg, sows, 2.0 mg/kg IM, mean, read-out: AUC0-24h
  AUC(0-t): 6640 ng·h/mL
pig, 2 mg/kg, sows, 2.0 mg/kg IM, mean, read-out: AUC0-last
  AUC(0-t): 12700 ng·h/mL
pig, 2 mg/kg, sows, 2.0 mg/kg IM, mean, read-out: AUCINF
  AUC(0-inf): 13700 ng·h/mL
pig, sows, 0.5 mg/kg IM, mean
  CL/F: 5.5 mL/min/kg
  Cmax: 108 ± 15.2 ng/mL
  MRT inf: 29.4 h
  Tmax: 3.5 h
  MRT last: 27.2 h
  Vd/F: 13.8 L/kg
pig, sows, 1.0 mg/kg IM, mean
  CL/F: 3.5 mL/min/kg
  Cmax: 158 ± 24.9 ng/mL
  MRT inf: 34.8 h
  Tmax: 5.5 h
  MRT last: 29.4 h
  Vd/F: 7.82 L/kg
pig, sows, 1.5 mg/kg IM, mean
  CL/F: 3.17 mL/min/kg
  Cmax: 344 ± 78.9 ng/mL
  MRT inf: 33.5 h
  Tmax: 3 h
  MRT last: 26.4 h
  Vd/F: 9.12 L/kg
pig, sows, 2.0 mg/kg IM, mean
  CL/F: 3 mL/min/kg
  Cmax: 453 ± 90.3 ng/mL
  MRT inf: 36.8 h
  Tmax: 4.5 h
  MRT last: 29.1 h
  Vd/F: 7.75 L/kg
pig, sows, 0.5-2.0 mg/kg IM
  half-life: 26.7 to 31.1 h
swine, sows, 0.5-2.0 mg/kg IM
  half-life: 26.7 to 31.1 h
sows, 0.5 mg/kg IM, mean
  AUC_Exp: 3.39%
  AUMC: 31765 h^2 × ng/mL
  T1/2λZ: 28.87 h
  λZ: 0.03 h⁻¹
sows, 1.0 mg/kg IM, mean
  AUC_Exp: 4.15%
  AUMC: 164892 h^2 × ng/mL
  T1/2λZ: 26.70 h
  λZ: 0.03 h⁻¹
sows, 1.5 mg/kg IM, mean
  AUC_Exp: 4.98%
  AUMC: 215365 h^2 × ng/mL
  T1/2λZ: 29.89 h
  λZ: 0.02 h⁻¹
sows, 2.0 mg/kg IM, mean
  AUC_Exp: 5.61%
  AUMC: 392753 h^2 × ng/mL
  T1/2λZ: 31.09 h
  λZ: 0.02 h⁻¹
sows, 0.5-2.0 mg/kg IM
  volume of distribution, range over dose groups: 7.75 to 13.8 L/kg
Vs flunixin (0.30 L/kg) in pigs
  volume of distribution in sows, fold larger than flunixin: approximately 26 fold
Vs flunixin (7.5 h) in pigs
  elimination half-life in sows, fold longer than flunixin: ~4 fold
Vs ketoprofen (0.35 L/kg) in pigs
  volume of distribution in sows, fold greater than ketoprofen: ~22 fold
Vs ketoprofen (3 h) in pigs
  elimination half-life in sows, fold longer than ketoprofen: approximately 10 fold
Vs meloxicam (0.42 L/kg) in pigs
  volume of distribution in sows, fold greater than meloxicam: ~18 fold
Vs meloxicam (6 h) in pigs
  elimination half-life in sows, fold longer than meloxicam: ~5 fold
